Patent publication US20260262643A1, “HERBICIDAL BENZOXAZINES” (FMC CORPORATION, priority 2022, published 2026)

Key:
oat, wild [1] = test: Test A preemergence; type: in vivo, Avena fatua; settings: 0 to 100 scale
Summary of the method: (§1)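 Plants were grown in loam and sand and treated preemergence or postemergence (one- to two-leaf stage, 2–10 cm) with compound in solvent plus surfactant. Response was scored against untreated controls after 10 greenhouse days, where 0 means no effect and 100 complete control.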

kochia = test: Test A preemergence; type: in vivo, Bassia scoparia; settings: 0 to 100 scale
Summary of the method: as §1

blackgrass [2] = test: Test A preemergence; type: in vivo, Alopecurus myosuroides; settings: 0 to 100 scale
Summary of the method: as §1

barnyardgrass = test: Test A preemergence; type: in vivo, Echinochloa crusgalli; settings: visual injury after 10 days, 0 to 100 scale, 0 is no effect, 100 is complete control
Summary of the method: as §1

rice = test: Test B flooded paddy test; type: in vivo, Oryza sativa; settings: Oryza sativa, 312 h; 250 g ai/ha, Flood, 13 days, 0 to 100 scale (0 no effect, 100 complete control); read-out: Plant response rating, Rice
Summary of the method: (§2)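 Each species was raised to the 2-leaf stage. At treatment, each pot received floodwater 3 cm deep, with the chemical delivered into the water. Greenhouse holding followed for 13 days, then percent control was estimated visually versus untreated pots.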

soybean = test: Test A preemergence; type: in vivo, Glycine max; settings: 0 to 100 scale
Summary of the method: as §1

blackgrass [3] = test: Test A postemergence; type: in vivo, Alopecurus myosuroides; settings: postemergence, 10 days
Summary of the method: as §1

sedge, umbrella = test: Test B flooded paddy test; type: in vivo, Cyperus difformis; settings: Cyperus difformis, 312 h; 250 g ai/ha, Flood, 13 days, 0 to 100 scale (0 no effect, 100 complete control); read-out: Plant response rating, Sedge, Umbrella
Summary of the method: as §2

ducksalad = test: Test B flooded paddy test; type: in vivo, Heteranthera limosa; settings: 250 g ai/ha, Flood, 13 days, 0 to 100 scale (0 no effect, 100 complete control)
Summary of the method: as §2

galium = test: Test A postemergence; type: in vivo, Galium aparine; settings: postemergence, 10 days
Summary of the method: as §1

oat, wild [4] = test: Test A postemergence; type: in vivo, Avena fatua; settings: postemergence, 10 days
Summary of the method: as §1

wheat = test: Test A postemergence; type: in vivo, Triticum aestivum; settings: postemergence, 10 days
Summary of the method: as §1

ryegrass, Italian = test: Test A postemergence; type: in vivo, Lolium multiflorum; settings: postemergence, 10 days
Summary of the method: as §1

[5] = 500 g ai/ha, visual injury after 10 days, 0 is no effect, 100 is complete control
[6] = 125 g ai/ha, 0 to 100 scale, 0 no effect, 100 complete control
[7] = 500 g ai/ha, visual injury, 0 to 100 scale (0 no effect, 100 complete control)

CC(C)c1ncn(-c2cc(C(=O)N3C[C@H](C)Oc4c(Cl)cccc43)c3ccccc3c2)n1 [Compound 145]
Plant response rating, Oat, Wild (oat, wild [1]; 125 g ai/ha): 0 | Plant response rating, Oat, Wild (oat, wild [1]; [5]): 50 | Plant response rating, Kochia (kochia; 125 g ai/ha): 70 | pest or weed control at 500 g/ha (kochia; Bassia scoparia, pre-emergence, 240 h, 500 g ai/ha, visual injury after 10 days, 0 is no effect, 100 is complete control, read-out: Plant response rating, Kochia): 50% | Plant response rating, Blackgrass (blackgrass [2]; 125 g ai/ha): 40 | pest or weed control at 500 g/ha (blackgrass [2]; Alopecurus myosuroides, pre-emergence, 240 h, 500 g ai/ha, visual injury after 10 days, 0 is no effect, 100 is complete control, read-out: Plant response rating, Blackgrass): 80% | Plant response rating, Barnyardgrass (barnyardgrass; 125 g ai/ha): 0 | Plant response rating, Barnyardgrass (barnyardgrass; 500 g ai/ha): 40 | plant injury at 250 g/ha (rice): 0% | Plant response rating, Soybean (soybean; 125 g ai/ha): 0 | Plant response rating, Soybean (soybean; [5]): 0 | Blackgrass plant response rating (blackgrass [3]; [6]): 40 | Plant response rating, Blackgrass (blackgrass [3]; [7]): 70 | pest or weed control at 250 g/ha (sedge, umbrella): 0% | Plant response rating, Ducksalad (ducksalad): 40 | Galium plant response rating (galium; [6]): 60 | pest or weed control at 500 g/ha (galium; Galium, post-emergence, 240 h, 500 g ai/ha, visual injury, 0 to 100 scale (0 no effect, 100 complete control), read-out: Plant response rating, Galium): 70% | Oat, Wild plant response rating (oat, wild [4]; [6]): 10 | Plant response rating, Oat, Wild (oat, wild [4]; [7]): 30 | Wheat plant response rating (wheat; [6]): 30 | plant injury at 500 g/ha (wheat; Triticum aestivum, post-emergence, 240 h, 500 g ai/ha, visual injury, 0 to 100 scale (0 no effect, 100 complete control), read-out: Plant response rating, Wheat): 30% | Ryegrass, Italian plant response rating (ryegrass, Italian; [6]): 30 | pest or weed control at 500 g/ha (ryegrass, Italian; Lolium multiflorum, post-emergence, 240 h, 500 g ai/ha, visual injury, 0 to 100 scale (0 no effect, 100 complete control), read-out: Plant response rating, Ryegrass, Italian): 40%
